Experimental data reported in US20140235840A1, “NEW SYNTHESIS OF FUCOSE” (GLYCOM A/S, priority 2011, published 2014).

Columns and labels:
[1] = Partition studies between organic solvent and water; assay type: physicochemical; conditions: for Number of volumes of organic solvent: to reach at least 95% of recovery using one volume of organic solvent each time relative to one volume of aqueous solution; for solubility in organic solvents: as compared to aqueous solvents; for amount of compound from aqueous phase / amount of compound from organic phase: 197 mg (cyclohexylidene) or 150 mg (isopropylidene) partitioned
Method: 1,2-O-Cyclohexylidene-6-deoxy-β-L-talofuranose (197 mg) was partitioned between water (10 mL) and methylene chloride (10 mL), layers separated and the residual amount of solutions in the separatory funnel were partitioned with extra amount of water (5 mL) and methylene chloride (5 mL). The combined organic phases were evaporated and dried in vacuo (50° C., <1 mbar, 1 hour) to give 140 mg of the title compound. The aqueous solution gave 53 mg after lyophilisation and drying in vacuo (50° C., <1 mbar, 2 hrs). Using the same procedure, partition between ethyl acetate and water provided 127 mg of the title compound from ethyl acetate phase and 70 mg from the aqueous phase.
Analogously, 1,2-O-isopropylidene-6-deoxy-β-L-talofuranose (150 mg) was partitioned between methylene chloride (24 mg) and aqueous phase (126 mg). Partition between ethyl acetate and water furnished 7 mg and 143 mg of the title compound, respectively.

[2] = shake-flask partition; gravimetric recovery from each phase; conditions: not told
[3] = conclusion in words from partition results
[4] = solvent system ethyl acetate-water

Row | Number of volumes of organic solvent ([1]; CH2Cl2-water) | solubility in aqueous solutions [1, 3] | solubility in organic solvents [1, 3] | amount of compound from aqueous phase ([1]; ethyl acetate-water) [mg] | amount of compound from organic phase ([1]; ethyl acetate-water) [mg] | Number of volumes of organic solvent ([1]; ethyl acetate-water) | amount of compound from aqueous phase ([1]; methylene chloride-water) [mg] | amount of compound from organic phase ([1]; methylene chloride-water) [mg] | Partition P (=[C]org/[C]aq) ([1]; solvent system CH2Cl2-water) | Partition P (=[C]org/[C]aq) [1, 4] | log partition ethyl acetate / water [2] | log partition methylene chloride (CH2Cl2) / water [2] | logP ([1]; solvent system CH2Cl2-water) | logP [1, 4] | Compound | affinity to organic solvents versus aqueous media [1, 3]
1 | 18 | highly soluble | almost insoluble | 143 | 7 | 21 | 126 | 24 | 0.19 | 0.16 | 0.16 concentration ratio (mass-based) | 0.19 concentration ratio (mass-based) | – | – | C[C@H](O)[C@H]1O[C@@H]2OC(C)(C)O[C@@H]2[C@@H]1O [1,2-O-isopropylidene-6-deoxy-β-L-talofuranose] | higher affinity to aqueous medium
2 | 3 | – | much higher solubility | 70 | 127 | 3 | 53 | 140 | 2.64 | 1.81 | – | – | 0.42 | 0.26 | C[C@H](O)[C@H]1O[C@@H]2OC3(CCCCC3)O[C@@H]2[C@@H]1O [1,2-O-Cyclohexylidene-6-deoxy-β-L-talofuranose] | higher affinity to organic solvents as compared to aqueous media
